Test results: ChEMBL document CHEMBL1201862, “PubChem BioAssay data set” (2004)
“And” between values parts separate entries of the source, which are not always exact repeats. Equal entries are not always repeated. The source made the active and inactive calls.

How the values were obtained:
[1] = luciferase reporter signal suppression in cells – H4 neuroglioma cells, luminescence, dose response (AID 1990); format: functional, cell-based
BJ [2] = assay: BJ-TERT fibroblast viability loss – cell-based, RAS-independent, luminescence, dose response (AID 1933); format: functional; conditions: Homo sapiens
[3] = Luminescence Cell-Based Dose Response HTS to Identify Inhibitors of 5'UTR Stem-Loop Driven Prion Protein mRNA Translation in H4 Neuroglioblastoma Cells. [Related pubchem assays: 1827 (Project Summary), 1813 (Primary HTS)]; format: functional
[4] = alpha-synuclein stem-loop luciferase translation blockers – H4 neuroglioma cells, luminescence, confirmation (AID 1988); format: functional, cell-based
BJ [5] = assay: cells; format: functional, cell-based; conditions: Homo sapiens
[6] = viability of PTEN-deleted HCT116 cells – cell-based, HCT116 PTEN knockout, dose response (AID 1047); format: functional;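 also: HCT116 colon tumor cells with PTEN knocked out; cells exposed to compound for 60 hours before readout; potency for loss of cell viability measured by luminescence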
[7] = viability of HCT116 lacking mutant beta-catenin – cell-based, human colon tumor, dose response (AID 1045); format: functional;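 also: HCT116 colon tumor cells with beta catenin knocked out; cells exposed to compound for 60 hours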
BJ [8] = assay: BJ-TERT-LT-ST fibroblast viability loss – cell-based, RAS-independent, luminescence, dose response (AID 1935); format: functional; conditions: Homo sapiens;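 also: BJ fibroblasts immortalized with TERT plus LT and ST oncogenes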
[9] = DRD fibroblast viability loss – cell-based, non-viral oncogenic, luminescence, dose response (AID 1934); format: functional; conditions: Homo sapiens
[10] = molecular target: T1, Ubiquitin-conjugating enzyme E2 N (Homo sapiens, UniProt P61088); format: functional;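 also: Dose-response confirmation in a TR-FRET assay detecting UBC13-driven polyubiquitin chain formation, inhibition measured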
T1 sequence (P61088 whole entry): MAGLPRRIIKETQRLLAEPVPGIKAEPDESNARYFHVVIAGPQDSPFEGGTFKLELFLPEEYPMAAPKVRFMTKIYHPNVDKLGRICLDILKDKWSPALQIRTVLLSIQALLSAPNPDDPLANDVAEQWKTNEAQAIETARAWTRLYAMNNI

Streptokinase A = molecular target: T2, Streptokinase A (Streptococcus pyogenes serotype M1, UniProt P10520); assay: viability-normalized secreted streptokinase activity reduction – plasminogen activation absorbance, OD405, dose response (AID 1914); format: functional, Streptococcus pyogenes M1 GAS;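 also: secreted streptokinase activity via plasminogen activation per viability signal from cell pellet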
T2 sequence (P10520 whole entry): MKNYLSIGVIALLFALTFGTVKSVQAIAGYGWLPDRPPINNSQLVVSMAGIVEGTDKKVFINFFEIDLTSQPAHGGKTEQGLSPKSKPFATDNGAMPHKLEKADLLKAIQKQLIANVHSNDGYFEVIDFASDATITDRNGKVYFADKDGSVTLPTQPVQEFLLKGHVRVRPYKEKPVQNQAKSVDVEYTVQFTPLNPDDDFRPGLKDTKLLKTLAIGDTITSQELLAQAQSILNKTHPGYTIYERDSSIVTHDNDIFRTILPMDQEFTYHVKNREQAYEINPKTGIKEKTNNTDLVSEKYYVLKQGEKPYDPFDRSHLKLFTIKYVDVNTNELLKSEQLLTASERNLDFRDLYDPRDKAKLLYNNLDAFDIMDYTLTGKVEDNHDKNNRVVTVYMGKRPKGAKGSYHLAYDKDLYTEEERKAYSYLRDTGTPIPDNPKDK

[11] = viability loss in THP-1 monocytes – THP-1 cells, cytotoxicity control for Vif-APOBEC3G degradation inhibitor project, dose response (AID 1117359); format: functional; conditions: THP-1
Nonstructural protein 1 = Nonstructural protein 1 (Influenza A virus, UniProt Q194T2); format: functional, Influenza A virus (A/California/07/2009(H1N1))
Nonstructural protein 1, sequence (Q194T2 whole entry): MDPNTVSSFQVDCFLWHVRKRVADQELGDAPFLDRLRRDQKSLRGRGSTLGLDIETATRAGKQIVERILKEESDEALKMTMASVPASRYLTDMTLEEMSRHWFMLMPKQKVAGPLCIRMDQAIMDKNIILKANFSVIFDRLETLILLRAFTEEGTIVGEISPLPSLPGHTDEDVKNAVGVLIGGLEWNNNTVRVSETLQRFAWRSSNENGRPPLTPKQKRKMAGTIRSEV

Leucine aminopeptidase = molecular target: T3, Leucine aminopeptidase (Plasmodium falciparum 3D7, UniProt Q8IL11); assay: P. falciparum M17LAP inhibitors, primary screen, biochemical, fluorogenic H-Leu-NHMec substrate, 1536-well (AID 1619); format: functional
T3 sequence (Q8IL11 whole entry): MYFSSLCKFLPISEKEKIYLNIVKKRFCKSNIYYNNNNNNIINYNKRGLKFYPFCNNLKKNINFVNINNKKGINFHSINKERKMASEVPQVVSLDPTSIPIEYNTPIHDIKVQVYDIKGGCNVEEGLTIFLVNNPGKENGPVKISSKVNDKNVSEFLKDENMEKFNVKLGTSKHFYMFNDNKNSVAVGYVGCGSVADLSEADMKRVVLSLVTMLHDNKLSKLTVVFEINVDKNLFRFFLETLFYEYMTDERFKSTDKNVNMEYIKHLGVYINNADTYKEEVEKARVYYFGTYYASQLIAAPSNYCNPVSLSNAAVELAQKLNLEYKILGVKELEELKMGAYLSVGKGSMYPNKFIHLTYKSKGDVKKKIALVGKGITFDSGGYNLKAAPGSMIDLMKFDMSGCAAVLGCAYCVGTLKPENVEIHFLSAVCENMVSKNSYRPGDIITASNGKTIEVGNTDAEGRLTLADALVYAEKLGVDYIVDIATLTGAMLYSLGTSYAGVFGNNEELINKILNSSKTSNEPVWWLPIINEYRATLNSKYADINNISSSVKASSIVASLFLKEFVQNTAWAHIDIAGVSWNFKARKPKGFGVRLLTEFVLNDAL

Cytochrome P450 1A2 = molecular target: T4, Cytochrome P450 1A2 (Homo sapiens, UniProt P05177);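 also: PubChem cytochrome P450 panel assay, CYP1A2 panel member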
T4 sequence (P05177 whole entry): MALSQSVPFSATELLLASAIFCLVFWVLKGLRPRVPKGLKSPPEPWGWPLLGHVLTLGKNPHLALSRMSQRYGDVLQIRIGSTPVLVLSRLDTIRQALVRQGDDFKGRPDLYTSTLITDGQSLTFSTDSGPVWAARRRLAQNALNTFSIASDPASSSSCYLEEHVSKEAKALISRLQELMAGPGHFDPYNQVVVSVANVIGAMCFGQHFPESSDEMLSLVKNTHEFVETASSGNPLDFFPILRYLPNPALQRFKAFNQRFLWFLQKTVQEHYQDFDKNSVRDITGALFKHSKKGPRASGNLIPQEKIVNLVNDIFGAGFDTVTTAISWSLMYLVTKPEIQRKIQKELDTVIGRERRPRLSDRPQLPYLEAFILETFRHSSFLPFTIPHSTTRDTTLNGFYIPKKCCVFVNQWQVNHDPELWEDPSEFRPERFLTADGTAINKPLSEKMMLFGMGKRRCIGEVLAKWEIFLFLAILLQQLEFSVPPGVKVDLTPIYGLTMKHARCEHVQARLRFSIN

Cytochrome P450 2C9 = Cytochrome P450 2C9 (Homo sapiens, UniProt P11712)
Cytochrome P450 2C9, sequence (P11712 whole entry): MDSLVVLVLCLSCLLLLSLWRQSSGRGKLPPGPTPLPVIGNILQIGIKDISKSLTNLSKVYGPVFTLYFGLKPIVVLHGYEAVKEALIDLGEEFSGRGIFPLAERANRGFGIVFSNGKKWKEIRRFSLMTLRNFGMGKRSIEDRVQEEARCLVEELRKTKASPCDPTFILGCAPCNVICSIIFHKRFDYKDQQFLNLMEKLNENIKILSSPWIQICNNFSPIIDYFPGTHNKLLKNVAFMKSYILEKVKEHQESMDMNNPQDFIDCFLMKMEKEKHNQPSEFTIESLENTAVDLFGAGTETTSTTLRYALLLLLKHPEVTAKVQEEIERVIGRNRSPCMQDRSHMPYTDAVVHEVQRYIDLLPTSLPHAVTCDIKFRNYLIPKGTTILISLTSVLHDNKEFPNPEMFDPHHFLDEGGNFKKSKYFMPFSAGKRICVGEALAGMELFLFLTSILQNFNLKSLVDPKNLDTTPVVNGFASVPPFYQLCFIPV

[12] = Luminescence Cell-Based Dose Response HTS to Identify Activators of Luciferase Translation or Activity in H4 […] Cells. [Related pubchem assays: 1829 (Project Summary), 1814 (Primary HTS)]; format: functional
[13] = system: Streptococcus sp. 'group A'; assay: Streptococcus pyogenes SK(-)GAS viability under kanamycin – luminescence, BacTiterGlo, confirmation, counter-screen for streptokinase expression inhibitor project, dose response (AID 1900); format: functional, organism-based
H4 = assay: Luminescence Cell-Based Dose Response HTS to Identify Activators of 5'UTR Stem-Loop Driven Prion Protein mRNA Translation in H4 Neuroglioblastoma Cells. [Related pubchem assays: 1829 (Project Summary), 1814 (Primary HTS)]; format: functional; conditions: Homo sapiens
[14] = Trypanosoma cruzi growth suppression in host cells – NIH3T3 host cells, beta-gal luminescence, confirmation (AID 2044); format: functional, cell-based;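 also: intracellular parasites grown in NIH/3T3 mouse fibroblasts as host cells; luminescent beta-galactosidase reporter signal from transgenic T. cruzi replicating inside host cells; inhibitors lower the luminescence signal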
[15] = NIH3T3 cell viability loss – ATP luminescence, mouse fibroblasts, counter-screen, dose response (AID 2010); format: functional, cell-based;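 also: cells exposed to compound for about 90 hours before reading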
Streptococcus = assay: GAS UMAA2166 growth inhibition – luminescence, BacTiterGlo, counter-screen for streptokinase expression inhibitor project, dose response (AID 1915); format: functional, organism-based;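 also: potency for reduction of bacterial viability or growth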
[16] = molecular target: T5, Replicative DNA helicase DnaB (Mycobacterium tuberculosis, UniProt P9WMR3); assay: DnaB intein splicing inhibitors, dose response, biochemical, cell-free fluorescence (AID 449749); format: functional
T5 sequence (P9WMR3 whole entry): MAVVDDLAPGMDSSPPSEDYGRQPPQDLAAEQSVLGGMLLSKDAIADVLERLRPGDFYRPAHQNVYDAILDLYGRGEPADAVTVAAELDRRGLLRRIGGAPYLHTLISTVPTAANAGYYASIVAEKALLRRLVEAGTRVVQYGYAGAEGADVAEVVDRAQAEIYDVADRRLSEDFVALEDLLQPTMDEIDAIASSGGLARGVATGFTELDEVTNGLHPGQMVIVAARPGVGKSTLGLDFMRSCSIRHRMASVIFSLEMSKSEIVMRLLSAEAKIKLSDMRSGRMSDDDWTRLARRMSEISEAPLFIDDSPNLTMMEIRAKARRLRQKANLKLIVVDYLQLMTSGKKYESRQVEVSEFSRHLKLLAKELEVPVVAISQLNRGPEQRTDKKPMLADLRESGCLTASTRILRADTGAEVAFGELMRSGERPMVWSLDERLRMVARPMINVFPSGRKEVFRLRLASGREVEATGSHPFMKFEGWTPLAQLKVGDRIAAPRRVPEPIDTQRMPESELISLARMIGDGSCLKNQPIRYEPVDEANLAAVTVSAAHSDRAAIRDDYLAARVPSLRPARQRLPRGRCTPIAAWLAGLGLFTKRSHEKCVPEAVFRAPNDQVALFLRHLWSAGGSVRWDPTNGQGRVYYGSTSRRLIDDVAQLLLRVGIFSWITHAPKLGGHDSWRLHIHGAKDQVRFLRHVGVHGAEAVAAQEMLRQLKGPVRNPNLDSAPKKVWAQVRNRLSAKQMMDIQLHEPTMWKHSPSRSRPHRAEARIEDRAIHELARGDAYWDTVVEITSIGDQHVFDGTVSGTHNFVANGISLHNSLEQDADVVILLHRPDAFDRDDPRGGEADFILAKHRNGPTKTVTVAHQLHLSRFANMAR

Protein RecA = molecular target: T6, Protein RecA (Mycobacterium tuberculosis, UniProt P9WHJ3); assay: Fluorescence Cell-Free Homogeneous Dose Retest to Identify Inhibitors of RecA-Intein Splicing Activity. [Related pubchem assays (depositor defined):AID2097, AID2223, AID489010, AID492950]; format: functional
T6 sequence (P9WHJ3 whole entry): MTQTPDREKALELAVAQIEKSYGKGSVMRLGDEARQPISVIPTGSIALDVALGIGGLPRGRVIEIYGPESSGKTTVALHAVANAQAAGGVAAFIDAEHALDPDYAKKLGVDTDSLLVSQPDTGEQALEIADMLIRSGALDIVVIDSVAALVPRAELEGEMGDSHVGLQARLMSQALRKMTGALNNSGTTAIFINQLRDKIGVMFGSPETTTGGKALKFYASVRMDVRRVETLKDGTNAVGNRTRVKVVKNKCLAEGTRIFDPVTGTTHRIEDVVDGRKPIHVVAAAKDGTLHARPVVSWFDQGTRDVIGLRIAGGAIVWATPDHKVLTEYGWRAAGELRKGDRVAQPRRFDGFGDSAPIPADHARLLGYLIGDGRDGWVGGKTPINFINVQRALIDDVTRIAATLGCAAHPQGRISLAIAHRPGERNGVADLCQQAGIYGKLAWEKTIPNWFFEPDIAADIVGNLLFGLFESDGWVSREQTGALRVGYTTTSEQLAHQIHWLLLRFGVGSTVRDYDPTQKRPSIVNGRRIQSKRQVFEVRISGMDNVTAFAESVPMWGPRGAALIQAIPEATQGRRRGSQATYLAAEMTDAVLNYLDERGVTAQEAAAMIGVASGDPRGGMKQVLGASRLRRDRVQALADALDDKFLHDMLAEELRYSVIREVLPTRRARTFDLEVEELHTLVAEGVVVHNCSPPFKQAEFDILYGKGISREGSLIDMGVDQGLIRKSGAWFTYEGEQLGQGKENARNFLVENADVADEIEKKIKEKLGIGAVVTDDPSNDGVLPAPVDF

COc1cc(/C=C(/C#N)c2nc3ccccc3[nH]2)ccc1OCC(=O)Nc1ccccc1C(C)C
EC50 [1]: 1.4 µM (active)
EC50 (BJ [2]): 2.97 µM (active)
EC50 [3]: 3.34 µM (active)
EC50 [4]: 0.56 µM (active)
EC50 (BJ [5]): 3.15 µM (active)
EC50 [6]: 19.6 µM (active)
EC50 [7]: 3.91 µM (active)
EC50 (BJ [8]): 5.76 µM (inconclusive)
EC50 [9]: 2.81 µM (active)

Cc1ccc(NC(=O)CSc2nc3ccccc3c(=O)n2CCCC(=O)NCCCN2CCOCC2)cc1C
IC50 [10]: > 20 µM (inactive)

CCN1CCN(Cc2ccc(NC(=O)c3cc(NC(=O)c4cc(-c5ccc(OC)cc5)n[nH]4)cc(OC)c3)cc2C(F)(F)F)CC1
EC50 (Streptokinase A): > 150 µM (not active)
IC50 [10]: > 20 µM (inactive)

COc1ccc2nc(N3CCN(C(=O)c4ccc5ncsc5c4)CC3)sc2c1
CC50 [11]: > 40 µM (active)

CN(CC(=O)O)Cc1nc2ccccc2[nH]1
IC50 (Nonstructural protein 1): 11.6 µM (active)

O=C(c1ccco1)N1CCN(C(=O)c2[nH]ncc2[N+](=O)[O-])CC1
IC50 (Leucine aminopeptidase): 2.22 µM (active)

O=C(c1ccco1)N1CCN(C(=O)c2cn(-c3ccccc3)nc2-c2ccccc2)CC1
CC50 [11]: 32.8 µM (active)

CC1CCN(C(=O)c2ccc3c(c2NCCO)C(=O)c2ccccc2C3=O)CC1
IC50 (Nonstructural protein 1): 24.5 µM (active)

Clc1ccccc1CNc1ncnc2nc[nH]c12
IC50 (Leucine aminopeptidase): 48.3 µM (active)

Cc1cc(NC(=O)CCN2C(=O)C3C4CCC(C4)C3C2=O)c(C)cc1Br (stereo not drawn)
IC50 (Leucine aminopeptidase): 13.7 µM (active)
AC50 (Cytochrome P450 1A2): 15.8 µM (inconclusive)
AC50 (Cytochrome P450 2C9): inconclusive

Cc1cccc(N(C(=O)c2snc(C(N)=O)c2N)C(C(=O)NC2CCCC2)c2ccco2)c1 (stereo not drawn)
IC50 [10]: > 20 µM (inactive)

COc1ccccc1N1CCN(C(=O)c2ccoc2C)CC1
CC50 [11]: > 40 µM (active)

Nc1nc(-c2ccccn2)nc(N)c1Cc1ccccc1F
EC50 [12]: 5.85 µM (active)
EC50 [13]: 11 µM (active)
EC50 (H4): 0.414 µM (active)
EC50 (Streptokinase A): > 150 µM (not active)
EC50 [14]: 2.52 µM (active)
EC50 [15]: > 60 µM (not active)
EC50 (Streptococcus): > 150 µM (not active)
IC50 (Nonstructural protein 1): 6.51 µM (active)

CCC(=O)NC(c1cc(Cl)c2ccccc2c1O)C(C)C (stereo not drawn)
IC50 [10]: > 20 µM (inactive)

Nc1n[nH]c(SCC(=O)Nc2ccc3c(c2)CCC3)n1
IC50 (Leucine aminopeptidase): 45.2 µM (active)

Cc1ccc(C(=O)/C=C/c2cc(C#N)n(C)c2C)cc1
CC50 [11]: > 40 µM (active)

O=C(Cc1cc(O)n[nH]1)N/N=C/C(Cl)=C/c1ccccc1
IC50 (Leucine aminopeptidase): 90.6 µM (active)
AC50 [16]: 1.95 µM (active) and 2.24 µM (active)
EC50 (Protein RecA): 1.02 µM (active) and 2.32 µM (active)

COc1ccccc1NC(=O)c1c(/N=C/c2cccc([N+](=O)[O-])c2)cnn1C
IC50 [10]: > 20 µM (inactive)
